# According to US4387059A, “Ureylenebis substituted (or unsubstituted) phenylene-carbonyl (or sulfonyl)-imino-1,3,5 or 6-naphthalene-trisulfonic acids and salts” (American Cyanamid Company, priority 1981, dated 1983):
# Counter-ions that a name gives are not always drawn.
# Columns and labels:
# [1] = tested on: shunt pathway; assay: Test Code 036 (C-Shunt inhibitor): lysis of fragile human erythrocytes in autologous serum via shunt pathway activated by cobra venom factor; type: cell-based; conditions: serial twofold dilution assay, higher well number indicates higher activity
# Source text: (§1) An active inhibitor protects C2 from C1 and C4; (ii) Test Code 035 (C3-C9 inhibitor)--This test determines the ability of the late components of human complement (C3-C9) to lyse EAC 142 in the presence of appropriate dilutions of the test compound. An active inhibitor protects EAC 142 from lysis by human C3-C9; (iii) Test Code 036 (C-Shunt inhibitor)--In this test human erythrocytes rendered fragile are lysed in autologous serum via the shunt pathway activated by cobra venom factor in the presence of appropriate dilutions of the test compound. Inhibition of the shunt pathway results in failure of lysis; (iv) Cap 50 Test--Here, appropriate amounts of the test compound are added to a pool of guinea pig serum in vitro, after which the complement level is determined in undiluted serum by the serum capillary tube assay of U.S. Pat. No. 3,876,376. The concentration of compound inhibiting 50% is reported; and (v) Guinea Pig Intraperitoneal Test (GPIP)--Guinea pigs weighing about 300 g are dosed intraperitoneally (i.p.) with 200 mg/kg of the test compound dissolved in saline and adjusted to pH 7-8. […] Percent inhibition is calculated by comparison with simultaneous controls. […]
# [2] = tested on: late components of human complement (C3-C9); assay: Test Code 035 (C3-C9 inhibitor): lysis of EAC 142 by late components of human complement; type: cell-based; conditions: serial twofold dilution assay, higher well number indicates higher activity
# Source text: as §1
# [3] = tested on: human C1; assay: Test Code 026 (C1 inhibitor): ability of activated human C1 to destroy fluid phase human C2 in the presence of C4; type: biochemical; conditions: serial twofold dilution assay, higher well number indicates higher activity
# Source text: as §1
# [4] = literature reports; cited from earlier work
# [5] = tested on: total hemolytic complement activity (human serum); conditions: in vitro and in vivo, Pathol. Biol. 25 (1977); cited from earlier work
# [6] = tested on: complement; assay: in vivo complement inhibition in guinea pig (GPIP test), capillary complement assay of sera; conditions: Intravenous, i.p. 200 mg/kg
# [7] = tested on: complement system; conditions: Br. J. Exp. Pathol. 33: 327 (1952); cited from earlier work
molecule,measurement,setting,value
"O=C(Nc1cccc(S(=O)(=O)Nc2cccc(S(=O)(=O)Nc3cccc(S(=O)(=O)Nc4cc(S(=O)(=O)O)cc5cc(S(=O)(=O)O)cc(S(=O)(=O)O)c45)c3)c2)c1)Nc1cccc(S(=O)(=O)Nc2cccc(S(=O)(=O)Nc3cccc(S(=O)(=O)Nc4cc(S(=O)(=O)O)cc5cc(S(=O)(=O)O)cc(S(=O)(=O)O)c45)c3)c2)c1 [8,8'-[Ureylenebis[[[[[[[(m-phenylenesulfonyl)imino]-m-phenylene]sulfonyl]imino]-m-phenylene]sulfonyl]-imino]]-1,3,6-naphthalenetrisulfonic acid, hexasodium salt]",in vitro Activity C-Shunt Inhibition 036* Wells,[1],+1 Wells
same,in vitro Activity C-Late 035* Wells,[2],+4 Wells
same,in vitro Activity C1 026* Wells,[3],+4 Wells
NCCCCCC(=O)O [epsilon-aminocaproic acid],treatment of hereditary angioneurotic edema,[4],used with success in the treatment of hereditary angioneurotic edema
pentosanpolysulfoester,anticomplementary activity (reduction in total hemolytic complement activity),[5],"anticomplementary activity on human serum, both in vitro and in vivo"
"O=C(Nc1ccc(C(=O)Nc2ccc(C(=O)Nc3ccc(C(=O)Nc4cc(S(=O)(=O)O)cc5cc(S(=O)(=O)O)cc(S(=O)(=O)O)c45)c(S(=O)(=O)O)c3)c(S(=O)(=O)O)c2)c(S(=O)(=O)O)c1)Nc1ccc(C(=O)Nc2ccc(C(=O)Nc3ccc(C(=O)Nc4cc(S(=O)(=O)O)cc5cc(S(=O)(=O)O)cc(S(=O)(=O)O)c45)c(S(=O)(=O)O)c3)c(S(=O)(=O)O)c2)c(S(=O)(=O)O)c1 [8,8'-Ureylenebis[tris[(2-sulfo-p-phenylenecarbonyl)imino]]-di-1,3,6-naphthalenetrisulfonic acid, dodecasodium salt]",in vitro Activity C-Late 035* Wells,[2],+2 Wells
same,in vitro Activity C1 026* Wells,[3],+5 Wells
same,in vivo Activity (Guinea Pig) % Inhibition,[6]; Time 2 Minutes,95%
same,in vivo Activity (Guinea Pig) % Inhibition,[6]; Time 30 Minutes,54%
same,in vivo Activity (Guinea Pig) % Inhibition,[6]; Time 120 Minutes,14%
heparin,anti-complementary effect,[7],anti-complementary effect
NC[C@H]1CC[C@H](C(=O)O)CC1 [tranexamic acid],treatment of hereditary angioneurotic edema,[4],used with success in the treatment of hereditary angioneurotic edema
"Nc1ccc2cc(S(=O)(=O)[O-])cc(O)c2c1N=Nc1ccc(NC(=O)Nc2ccc(N=Nc3c(N)ccc4cc(S(=O)(=O)[O-])cc(O)c34)c(S(=O)(=O)[O-])c2)cc1S(=O)(=O)[O-].[Na+].[Na+].[Na+].[Na+] [chlorazol fast pink, 3,3'-ureylenebis[6-(2-amino-8-hydroxy-6-sulfo-1-naphthylazo)benzenesulfonic acid], tetrasodium salt]",anti-complementary effect,[7],anti-complementary effect
